The source of these data is BindingDB's records for patent US20250127800 (Signet Therapeutics, 2025).

This assay deals with Focal adhesion kinase 1 (Homo sapiens, UniProt Q05397). As to the kind of experiment: In Vitro Enzymatic Inhibitory Activity Assay.
Sequence of Focal adhesion kinase 1 (Q05397 whole entry): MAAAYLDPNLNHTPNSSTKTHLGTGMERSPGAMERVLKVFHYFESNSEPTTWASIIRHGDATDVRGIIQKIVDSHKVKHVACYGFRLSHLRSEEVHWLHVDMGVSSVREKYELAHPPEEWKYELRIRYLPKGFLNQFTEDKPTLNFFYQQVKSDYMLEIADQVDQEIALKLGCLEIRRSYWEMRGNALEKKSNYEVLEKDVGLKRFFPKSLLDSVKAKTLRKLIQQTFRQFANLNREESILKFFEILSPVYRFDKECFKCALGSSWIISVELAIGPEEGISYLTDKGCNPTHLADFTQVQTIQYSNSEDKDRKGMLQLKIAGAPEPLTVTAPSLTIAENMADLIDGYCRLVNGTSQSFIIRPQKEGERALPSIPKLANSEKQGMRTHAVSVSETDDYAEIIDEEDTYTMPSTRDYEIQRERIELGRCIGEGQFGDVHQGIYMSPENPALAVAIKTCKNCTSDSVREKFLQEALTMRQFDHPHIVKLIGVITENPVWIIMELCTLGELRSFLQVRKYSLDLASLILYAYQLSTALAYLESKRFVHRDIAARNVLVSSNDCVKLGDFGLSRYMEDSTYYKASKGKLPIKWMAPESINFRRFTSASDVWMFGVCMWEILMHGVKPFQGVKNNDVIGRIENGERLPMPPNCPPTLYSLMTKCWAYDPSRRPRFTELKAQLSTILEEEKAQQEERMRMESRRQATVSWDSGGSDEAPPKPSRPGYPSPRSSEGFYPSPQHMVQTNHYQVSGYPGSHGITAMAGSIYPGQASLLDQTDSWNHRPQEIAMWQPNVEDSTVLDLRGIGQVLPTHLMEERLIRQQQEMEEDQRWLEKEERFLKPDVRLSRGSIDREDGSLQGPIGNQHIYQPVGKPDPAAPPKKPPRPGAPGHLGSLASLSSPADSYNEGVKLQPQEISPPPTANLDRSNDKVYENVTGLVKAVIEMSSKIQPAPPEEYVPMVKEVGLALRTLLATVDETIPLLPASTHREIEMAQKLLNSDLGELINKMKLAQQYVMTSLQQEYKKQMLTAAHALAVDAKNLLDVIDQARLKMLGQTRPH
Regarding `C=CC(=O)N1CCC(NC(=O)c2ccc(Nc3ncc(C(F)(F)F)c(NCc4nccnc4N(C)S(C)(=O)=O)n3)c(OC)c2)C1` (stereo unspecified) [US20250127800, Example 2], half-maximal inhibition (IC50) was put at 1.18 nM.
For `C=CC(=O)N1CCCC(NC(=O)c2ccc(Nc3ncc(C(F)(F)F)c(NCc4nccnc4N(C)S(C)(=O)=O)n3)c(OC)c2)C1` (stereo unspecified) [US20250127800, Example 3], the IC50 – broadly, the midpoint of a concentration-inhibition curve – was 1.59 nM.
For the compound `C=CC(=O)NC1CCC(CNC(=O)c2ccc(Nc3ncc(C(F)(F)F)c(NCc4nccnc4N(C)S(C)(=O)=O)n3)c(OC)c2)CC1` (stereo unspecified) [US20250127800, Example 5], it took 0.9 nM to reach half-maximal inhibition (IC50). Compared with the last compound, the IC50 is about 1.8-fold lower.
Compound `C=CC(=O)N1CCCC(c2cccc(NCc3ccc(Nc4ncc(C(F)(F)F)c(Nc5ccccc5C(=O)NC)n4)c(OC)c3)c2)C1` (stereo unspecified) [US20250127800, Example 12] gave a half-inhibitory concentration (IC50) of 3.41 nM.
Take `C=CC(=O)N1CCCC(c2cccc(NCc3ccc(Nc4ncc(Cl)c(Nc5ccccc5C(=O)NC)n4)cc3)c2)C1` (stereo unspecified) [US20250127800, Example 15]: the IC50 is 7.84 nM.
The figure for `C=C(C)C(=O)N1CCCC(c2cccc(NCc3ccc(Nc4ncc(C(F)(F)F)c(Nc5ccccc5C(=O)NC)n4)cc3)c2)C1` (stereo unspecified) [US20250127800, Example 24] is 2.93 nM.
